This is an account of results in ChEMBL document CHEMBL1909046, “DrugMatrix in vitro pharmacology data”.

Data set [1] deals with T1, Alpha-1A adrenergic receptor (Rattus norvegicus, UniProt P43140).
T1 sequence (P43140 whole entry): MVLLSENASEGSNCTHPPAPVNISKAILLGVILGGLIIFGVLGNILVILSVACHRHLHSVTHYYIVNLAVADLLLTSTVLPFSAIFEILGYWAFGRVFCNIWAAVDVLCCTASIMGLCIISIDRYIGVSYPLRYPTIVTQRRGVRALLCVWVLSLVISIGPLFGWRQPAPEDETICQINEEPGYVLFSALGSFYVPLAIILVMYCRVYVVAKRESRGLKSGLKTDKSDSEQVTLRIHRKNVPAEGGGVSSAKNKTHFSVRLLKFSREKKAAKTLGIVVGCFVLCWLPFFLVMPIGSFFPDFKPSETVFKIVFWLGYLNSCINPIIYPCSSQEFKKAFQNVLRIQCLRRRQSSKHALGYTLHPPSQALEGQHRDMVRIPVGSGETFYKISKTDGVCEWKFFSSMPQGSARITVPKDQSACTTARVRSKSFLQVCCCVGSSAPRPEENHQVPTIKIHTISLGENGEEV
Kind of data set: DRUGMATRIX: Alpha-1A adrenergic receptor radioligand binding (ligand: prazosin). Particulars: Not Active = under 50% inhibition at 10 µM. In kind it is cell membranes, Wistar, Submaxillary gland, Membrane.

In data set [2] the target is C-C chemokine receptor type 2 (Homo sapiens, UniProt P41597). In kind it is cell membranes, CHO-K1, Membrane. Particulars: cho-k1. Note: in other assays of this panel Not Active means under 50% inhibition at 10 µM.
Data set [3] in a line: DRUGMATRIX: GABAA, Muscimol, Central radioligand binding (ligand: [3H] Muscimol). Format: cell membranes, Rattus norvegicus, Wistar, Brain, Membrane. Particulars: Not Active = under 50% inhibition at 10 µM.
Data set [4] concerns the target Matrix metalloproteinase-9 (Homo sapiens, UniProt P14780). Kind of data set: biochemical. Format: cell-based.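 Note: inhibition of isolated MMP-9 enzyme activity toward a synthetic peptide substrate, from the DrugMatrix protease screening panel; in other assays of this panel Not Active means under 50% inhibition at 10 µM.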
Another data set concerns the target Adenosine receptor A2a (Homo sapiens, UniProt P29274). The experiment in a line: DRUGMATRIX: Adenosine A2A radioligand binding (ligand: […]). The conditions noted are these: Not Active = under 50% inhibition at 10 µM. In kind it is cell membranes, HEK293, Membrane.
The target of a further data set is Cytochrome P450 2C9 (Homo sapiens, UniProt P11712). Particulars: bti-tn-5b1-4. Note: in other assays of this panel Not Active means under 50% inhibition at 10 µM.
Sequence of Cytochrome P450 2C9 (P11712 whole entry): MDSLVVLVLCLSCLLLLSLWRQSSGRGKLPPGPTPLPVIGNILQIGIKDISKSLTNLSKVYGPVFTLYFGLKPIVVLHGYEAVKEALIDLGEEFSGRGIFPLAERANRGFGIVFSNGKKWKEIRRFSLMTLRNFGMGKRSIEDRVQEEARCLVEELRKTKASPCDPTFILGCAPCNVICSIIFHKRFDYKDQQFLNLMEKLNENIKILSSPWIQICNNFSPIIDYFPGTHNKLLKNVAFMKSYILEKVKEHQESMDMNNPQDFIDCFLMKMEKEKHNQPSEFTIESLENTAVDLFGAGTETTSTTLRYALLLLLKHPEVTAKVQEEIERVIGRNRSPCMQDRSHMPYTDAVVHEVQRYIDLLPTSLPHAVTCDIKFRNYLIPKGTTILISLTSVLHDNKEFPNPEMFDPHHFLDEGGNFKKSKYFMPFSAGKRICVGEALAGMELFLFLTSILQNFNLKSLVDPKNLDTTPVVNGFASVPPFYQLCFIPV

Sequence of Adenosine receptor A2a (P29274 whole entry): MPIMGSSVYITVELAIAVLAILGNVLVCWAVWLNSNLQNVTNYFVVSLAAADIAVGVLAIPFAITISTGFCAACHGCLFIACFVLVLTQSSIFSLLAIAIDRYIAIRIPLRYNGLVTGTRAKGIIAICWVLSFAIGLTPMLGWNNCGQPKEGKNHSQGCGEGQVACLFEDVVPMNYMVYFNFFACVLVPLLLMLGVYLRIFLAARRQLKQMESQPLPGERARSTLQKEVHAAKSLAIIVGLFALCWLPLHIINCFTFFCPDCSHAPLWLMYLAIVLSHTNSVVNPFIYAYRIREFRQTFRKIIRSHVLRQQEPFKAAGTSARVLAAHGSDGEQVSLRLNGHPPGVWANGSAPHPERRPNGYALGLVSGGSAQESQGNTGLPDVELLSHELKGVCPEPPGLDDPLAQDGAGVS
Sequence of C-C chemokine receptor type 2 (P41597 whole entry): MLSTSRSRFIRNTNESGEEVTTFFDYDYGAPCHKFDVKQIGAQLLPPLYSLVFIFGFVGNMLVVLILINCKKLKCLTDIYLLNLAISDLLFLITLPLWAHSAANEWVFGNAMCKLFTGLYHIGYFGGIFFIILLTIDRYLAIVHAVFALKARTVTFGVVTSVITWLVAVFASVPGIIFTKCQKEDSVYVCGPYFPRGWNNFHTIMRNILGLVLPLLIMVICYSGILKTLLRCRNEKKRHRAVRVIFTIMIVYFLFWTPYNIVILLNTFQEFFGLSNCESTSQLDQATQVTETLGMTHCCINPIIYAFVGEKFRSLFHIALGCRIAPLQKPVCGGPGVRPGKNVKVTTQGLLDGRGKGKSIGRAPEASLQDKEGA
Sequence of Matrix metalloproteinase-9 (P14780 whole entry): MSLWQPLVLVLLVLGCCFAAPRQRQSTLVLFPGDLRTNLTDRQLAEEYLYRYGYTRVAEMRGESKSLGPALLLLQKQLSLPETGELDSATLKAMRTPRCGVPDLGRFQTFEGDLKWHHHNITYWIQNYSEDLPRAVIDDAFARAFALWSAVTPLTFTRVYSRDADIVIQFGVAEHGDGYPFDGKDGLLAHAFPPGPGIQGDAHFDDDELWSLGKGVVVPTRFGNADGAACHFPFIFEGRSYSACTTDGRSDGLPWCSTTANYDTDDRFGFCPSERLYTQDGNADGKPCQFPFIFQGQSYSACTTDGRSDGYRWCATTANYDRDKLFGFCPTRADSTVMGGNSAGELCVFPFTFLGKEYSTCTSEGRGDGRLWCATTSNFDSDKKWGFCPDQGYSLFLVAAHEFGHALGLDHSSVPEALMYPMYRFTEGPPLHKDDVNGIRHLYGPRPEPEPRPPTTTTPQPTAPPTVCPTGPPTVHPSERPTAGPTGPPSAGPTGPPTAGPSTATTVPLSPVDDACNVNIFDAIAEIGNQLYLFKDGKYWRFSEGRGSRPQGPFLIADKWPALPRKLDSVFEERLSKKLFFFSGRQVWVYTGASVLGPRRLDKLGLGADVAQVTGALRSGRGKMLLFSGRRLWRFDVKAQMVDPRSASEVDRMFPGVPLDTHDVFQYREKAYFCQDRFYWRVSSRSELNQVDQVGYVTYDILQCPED

For orientation: IC50 means the concentration that inhibits the measured activity by half. The term Ki denotes the equilibrium dissociation constant of an inhibitor or competing ligand from its target. Consider `CC(C)(C(=O)c1cccnc1)c1cccnc1` [METYRAPONE], for which the IC50 entry (in data set [1]; in data set [2]; in data set [3]; in data set [4]; on Adenosine receptor A2a (hek293); at Cytochrome P450 2C9) was “Not Active” throughout. In addition, the Ki result (in data set [3]; at Cytochrome P450 2C9) was “Not Active” throughout.

Take `CC(C)(Oc1ccc(C2CCCc3ccccc32)cc1)C(=O)O` (stereo unspecified) [NAFENOPIN]: the IC50 result (in data set [1]; in data set [2]; in data set [3]; in data set [4]; on Adenosine receptor A2a (hek293); at Cytochrome P450 2C9) was “Not Active” throughout. Also, the Ki entry (in data set [3]; at Cytochrome P450 2C9) was “Not Active” in each case.

As to `CC(C)[C@H]1CC[C@H](C(=O)N[C@H](Cc2ccccc2)C(=O)O)CC1` [NATEGLINIDE], the IC50 entry (in data set [1]; in data set [2]; in data set [3]; in data set [4]; on Adenosine receptor A2a (hek293); at Cytochrome P450 2C9) was “Not Active” in each case. Moreover, the Ki entry (in data set [3]; on Cytochrome P450 2C9) was “Not Active” each time.

In the case of `CCN[C@@H]1C[C@H](N)[C@@H](O[C@H]2OC(CN)=CC[C@H]2N)[C@H](O)[C@H]1O[C@H]1OC[C@](C)(O)[C@H](NC)[C@H]1O` [NETILMICIN], the IC50 entry (in data set [1]; in data set [2]; in data set [3]; in data set [4]; on Adenosine receptor A2a (hek293); at Cytochrome P450 2C9) was “Not Active” in each case. In addition, the Ki result (in data set [3]; at Cytochrome P450 2C9) was “Not Active” throughout.

Regarding `C#C[C@]1(OC(C)=O)CC[C@H]2[C@@H]3CCC4=CC(=O)CC[C@@H]4[C@H]3CC[C@@]21C` [NORETHINDRONE ACETATE], the IC50 entry (in data set [1]; in data set [2]; in data set [3]; in data set [4]; on Adenosine receptor A2a (hek293); on Cytochrome P450 2C9) was “Not Active” in each case. For the same compound, the Ki result (in data set [3]; at Cytochrome P450 2C9) was “Not Active” in each case.

Regarding `COc1ccc2[nH]c([S+]([O-])Cc3ncc(C)c(OC)c3C)nc2c1` (stereo unspecified) [OMEPRAZOLE], the IC50 result (in data set [1]; in data set [2]; in data set [3]; in data set [4]; at Adenosine receptor A2a (hek293); at Cytochrome P450 2C9) was “Not Active” each time. For the same compound, the inhibitory constant (Ki) result (in data set [3]; on Cytochrome P450 2C9) was “Not Active” each time.

For `Cc1nccn1CC1CCc2c(c3ccccc3n2C)C1=O` (stereo unspecified) [ONDANSETRON], the IC50 result (in data set [1]; in data set [2]; in data set [3]; in data set [4]; on Adenosine receptor A2a (hek293); against Cytochrome P450 2C9) was “Not Active” each time. Further, the Ki result (in data set [3]; at Cytochrome P450 2C9) was “Not Active” in each case.

Regarding `CCCCOc1ccc(OCCCN2CCOCC2)cc1` [PRAMOXINE], the IC50 entry (in data set [1]; in data set [2]; in data set [3]; in data set [4]; at Adenosine receptor A2a (hek293); against Cytochrome P450 2C9) was “Not Active” in each case. The Ki result (in data set [3]; on Cytochrome P450 2C9) was “Not Active” each time.

Regarding `O=C(C1CCCCC1)N1CC(=O)N2CCc3ccccc3C2C1` (stereo unspecified) [PRAZIQUANTEL], the IC50 entry (in data set [1]; in data set [2]; in data set [3]; in data set [4]; at Adenosine receptor A2a (hek293); against Cytochrome P450 2C9) was “Not Active” in each case. Moreover, the Ki entry (in data set [3]; on Cytochrome P450 2C9) was “Not Active” in each case.

Consider `CCN(CC)CCOC(=O)c1ccc(N)cc1` [PROCAINE], for which the IC50 result (in data set [1]; in data set [2]; in data set [3]; in data set [4]; at Adenosine receptor A2a (hek293); at Cytochrome P450 2C9) was “Not Active” in each case. For the same compound, the Ki result (in data set [3]; at Cytochrome P450 2C9) was “Not Active” throughout.

Turning to `CCCN(CCC)C(=O)C(CCC(=O)O)NC(=O)c1ccccc1` (stereo unspecified) [PROGLUMIDE], the 50% inhibitory concentration (IC50) entry (in data set [1]; in data set [2]; in data set [3]; in data set [4]; on Adenosine receptor A2a (hek293); against Cytochrome P450 2C9) was “Not Active” throughout. Moreover, the Ki entry (in data set [3]; at Cytochrome P450 2C9) was “Not Active” in each case.

On to `NC(=O)c1cnccn1` [PYRAZINAMIDE], for which the IC50 entry (in data set [1]; in data set [2]; in data set [3]; in data set [4]; at Adenosine receptor A2a (hek293); against Cytochrome P450 2C9) was “Not Active” in each case. For the same compound, the inhibition constant Ki result (in data set [3]; on Cytochrome P450 2C9) was “Not Active” each time.

For the compound `OC(CCN1CCCCC1)(c1ccccc1)C1CCCCC1` (stereo unspecified) [TRIHEXYPHENIDYL], the IC50 result (in data set [1]; in data set [2]; in data set [3]; in data set [4]; on Adenosine receptor A2a (hek293); against Cytochrome P450 2C9) was “Not Active” in each case. Also, the Ki entry (in data set [3]; at Cytochrome P450 2C9) was “Not Active” throughout.

On to `Cc1cc2cc3c(C)cc(=O)oc3c(C)c2o1` [TRIOXSALEN], for which the half-maximal inhibitory concentration (IC50) entry in data set [1] was “Not Active”; in data set [2], “Not Active”; in data set [3] it was “Not Active”; in data set [4], “Not Active”; at Adenosine receptor A2a (read-out: IC50), 1310 nM; at Cytochrome P450 2C9 it was “Not Active”. The Ki result in data set [3] is “Not Active”; on Adenosine receptor A2a (read-out: Ki), 737 nM; at Cytochrome P450 2C9, “Not Active”.

Take `CCCC(CCC)C(=O)O` [VALPROIC ACID]: the IC50 result (in data set [1]; in data set [2]; in data set [3]; in data set [4]; on Adenosine receptor A2a (hek293); at Cytochrome P450 2C9) was “Not Active” each time. The Ki entry (in data set [3]; at Cytochrome P450 2C9) was “Not Active” in each case.

Consider `CCC1=C[C@@H]2CN(C1)Cc1c([nH]c3ccccc13)[C@@](C(=O)OC)(c1cc3c(cc1OC)N(C)[C@H]1[C@@](O)(C(=O)OC)[C@H](OC(C)=O)[C@]4(CC)C=CCN5CC[C@]31[C@@H]54)C2` [VINORELBINE], for which the IC50 entry (in data set [1]; in data set [2]; in data set [3]; in data set [4]; on Adenosine receptor A2a (hek293); on Cytochrome P450 2C9) was “Not Active” each time. The Ki entry (in data set [3]; on Cytochrome P450 2C9) was “Not Active” in each case.

Consider CADMIUM DICHLORIDE, for which the IC50 result (in data set [1]; in data set [2]; in data set [3]; in data set [4]; on Adenosine receptor A2a (hek293); against Cytochrome P450 2C9) was “Not Active” each time. Further, the Ki result (in data set [1]; in data set [2]; in data set [3]; in data set [4]; on Adenosine receptor A2a (hek293); on Cytochrome P450 2C9) was “Not Active” in each case.
